Patent US20240277684A1, “BLOCKADE OF CHEMOKINE (C-C MOTIF) RECEPTOR 2 DURING FLUID RESUSCITATION” (University of South Florida, priority 2022, published 2024)

Key:
hemorrhagic shock = test: Example 2 Series 2: 60 min hemorrhagic shock, single dose, fluid resuscitation until t=300 min; format: in vivo, rat
Method: The hemorrhagic shock models were performed as described previously, with slight modifications (DeSantis A J, et al., The Chemokine (C-C Motif) Receptor 2 Antagonist INCB3284 Reduces Fluid Requirements and Protects From Hemodynamic Decompensation During Resuscitation From Hemorrhagic Shock. Crit Care Explor 2022;4(5):e0701; Bach H H, et al., Chemokine (C-X-C motif) receptor 4 and atypical chemokine receptor 3 regulate vascular alpha(1)-adrenergic receptor function. Mol Med 2014; 20:435-47; Nassoiy S P, et al., Effects of the Kv7 voltage activated potassium channel inhibitor linopirdine in rat models of hemorrhagic shock. Clin Exp Pharmacol Physiol 2018. doi: 10.1111/1440-1681.12958. PubMed PMID: 29702725; Bach H H, et al., Proteasome inhibition prolongs survival during lethal hemorrhagic shock in rats. J Trauma Acute Care Surg 2013; 74(2):499-507). In brief, anesthesia induction was performed with the animal and isoflurane-soaked gauze placed in a bell jar. After anesthesia induction, the animals were transferred to the operative field and anesthesia was maintained with 2.7% isoflurane administered via nose-cone inhalation with the SomnoSuite small animal anesthesia system (Kent Scientific Corporation, Torrington, CT, USA). […] Using a direct cut-down technique, the left femoral artery was isolated and cannulated with a 24-gauge peripheral intravenous catheter to allow for blood withdrawal, hemodynamic monitoring, drug administration, and fluid resuscitation. After catheter placement, isoflurane was decreased to 1.5%. Hemodynamics were continuously monitored with the Surgivet invasive blood pressure monitor (Med-Electronics, Beltsville, MD, USA). Blood pressures were recorded at 1-5 min intervals during the hemorrhage and resuscitation periods. Four subsequent series of experiments were performed. All experiments in each series were performed in alternating order. In all experiments animals were continuously monitored and remained under general anesthesia until euthanasia or death, as defined by asystole or loss of pulse pressure.
Series 2: Rats were hemorrhaged to a MAP of less than or equal to 30 mmHg for a period of 60 min, followed by fluid resuscitation until t=300 min as in Series 1. At the end of the hemorrhagic shock period (t=60 min), animals were injected with 1 mL of normal saline (NS) (n=6), 5 μmol/kg (n=6) INCB3284 in 1 mL NS or 1.1 μmol/kg SB 328437 (n=6) in 1 mL NS at t=60 min. At t=0 min, 60 min, 120 min, 180 min, 240 min and 300 min, blood samples (0.3 ml) were obtained and used for arterial blood gas analyses and measurements of routine laboratory parameters. At t=300 min, surviving animals were euthanized (5% isoflurane inhalation, bilateral pneumothorax).
Arterial blood gases and routine laboratory parameters. Arterial blood gases, electrolytes, creatinine, lactate, hematocrit and hemoglobin were analyzed using the Element point of care veterinary blood gas, electrolyte and critical care analyzer (Cuattro Veterinary USA, Loveland, CO, USA).

CCR2 = CCR2 (Homo sapiens, UniProt P41597); conditions: read-out: IC50, inhibiting monocyte chemoattractant protein-1 binding to hCCR2; cited from earlier work
Chain of CCR2 (P41597 whole entry): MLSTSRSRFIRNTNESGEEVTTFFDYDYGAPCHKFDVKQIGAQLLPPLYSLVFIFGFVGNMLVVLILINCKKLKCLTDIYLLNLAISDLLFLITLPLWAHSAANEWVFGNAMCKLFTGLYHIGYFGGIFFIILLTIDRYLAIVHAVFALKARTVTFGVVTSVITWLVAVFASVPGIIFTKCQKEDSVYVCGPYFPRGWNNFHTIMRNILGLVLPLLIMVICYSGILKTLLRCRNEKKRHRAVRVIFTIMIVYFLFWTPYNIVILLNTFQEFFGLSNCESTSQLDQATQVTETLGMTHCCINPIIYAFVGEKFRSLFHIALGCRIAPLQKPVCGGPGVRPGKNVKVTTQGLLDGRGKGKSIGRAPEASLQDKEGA

COc1ccc([C@]2(O)CC[C@@H](N3CC[C@@H](NC(=O)CNC(=O)c4cccc(C(F)(F)F)c4)C3)CC2)cn1 [INCB3284]
median survival time (hemorrhagic shock; 1.1 μmol/kg SB328437 or 5 μmol/kg INCB3284 at t=60 min): undefined
animals that survived the resuscitation period (hemorrhagic shock; 1.1 μmol/kg SB328437 or 5 μmol/kg INCB3284 at t=60 min, until t=300 min, n=6): all
reduction of fluid resuscitation requirements to achieve the target MAP (hemorrhagic shock; 5 μmol/kg at t=60 min, until t=220 min, p<0.05 vs. vehicle): 65%
IC50 (CCR2): 3.7 nM
